Values after ≈ are worked out from the molar mass of the structure shown. Active and inactive are the calls of the source. The calls are words filed in the database; no cut-off is given here.
Legend:
[1] = test system: Escherichia coli; test: Antibacterial activity against Escherichia coli by microdilution assay; format: functional, organism-based
[2] = test system: Staphylococcus aureus; test: Antibacterial activity against Staphylococcus aureus by microdilution assay; format: functional
[3] = test system: SK-OV-3; test: Cytotoxicity against human SKOV3 cells after 48 hrs by MTT assay; format: functional, cell-based
[4] = Cytotoxicity against human BIU87 cells after 48 hrs by MTT assay; format: functional, cell-based
[5] = test system: K562; test: Cytotoxicity against human K562 cells after 48 hrs by MTT assay; format: functional, cell-based
[6] = Cytotoxicity against human AGZY cells after 48 hrs by MTT assay; format: functional, cell-based
[7] = test system: EJ; test: Cytotoxicity against human EJ cells after 48 hrs by MTT assay; format: functional, cell-based
[8] = Cytotoxicity against human GLC82 cells after 48 hrs by MTT assay; format: functional, cell-based
[9] = test system: SGC-7901; test: Cytotoxicity against human SGC7901 cells after 48 hrs by MTT assay; format: functional, cell-based
[10] = test system: MCF7; test: Cytotoxicity against human MCF7 cells after 48 hrs by MTT assay; format: functional, cell-based; settings: MCF7, 48 h
[11] = test system: A549; test: Cytotoxicity against human A549 cells by SRB assay; format: functional, cell-based
[12] = Homo sapiens, K562, 48 h, read-out: IC50

Compound	MIC [1]	MIC [2]	IC50 [3]	IC50 [4]	IC50 ([5]; k562)	IC50 ([6]; agzy)	IC50 [7]	IC50 [8]	IC50 ([9]; sgc-7901)	IC50 [5, 12] [µg/mL]	IC50 ([6]; Homo sapiens, AGZY, 48 h, read-out: IC50) [µg/mL]	IC50 [10] [µg/mL]	IC50 ([9]; Homo sapiens, SGC-7901, 48 h, read-out: IC50) [µg/mL]	IC50 [11] [µg/mL]
GENTAMICIN	0.05 µg/mL	0.05 µg/mL	–	–	–	–	–	–	–	–	–	–	–	–
C=C1CC/C=C(\C)C[C@H](OC(=O)/C=C/c2ccc(O)c([N+](=O)[O-])c2)CC(C)(C)C[C@@H]1O	–	–	Not Active	Not Active	Not Active	Not Active	Not Active	Not Active	Not Active	–	–	–	–	–
C/C1=C\CC(C)(C)C[C@@H](OC(=O)/C=C/c2ccc(O)cc2)C/C(C)=C/CC1	inactive	inactive	Not Active	Not Active	–	–	Not Active	Not Active	–	12 (≈ 32.6 µM)	27.8 (≈ 75.5 µM)	40.5 (≈ 110 µM)	49.4 (≈ 134 µM)	25.6 (≈ 69.5 µM)
O=c1[nH]cc(F)c(=O)[nH]1 [FLUOROURACIL]	–	–	–	–	–	–	–	–	–	–	–	–	–	2 (≈ 15.4 µM)
CC(C)[C@@H]1CC[C@]2(C)[C@H]3CC[C@]2(C)[C@H](OC(=O)/C=C/c2ccc(O)cc2)[C@@H]13	–	–	Not Active	Not Active	–	Not Active	Not Active	Not Active	Not Active	41.7 (≈ 113 µM)	–	–	–	–
C=C1CC/C=C(\C)C[C@H](OC(=O)/C=C/c2ccc(O)cc2)CC(C)(C)C[C@@H]1OO	inactive	45 µg/mL (≈ 112 µM)	Not Active	Not Active	–	Not Active	Not Active	Not Active	Not Active	57.4 (≈ 143 µM)	–	23.4 (≈ 58.4 µM)	–	33.4 (≈ 83.3 µM)

Reference: ChEMBL document CHEMBL1155188, “Sesquiterpenoids from Pilea cavaleriei subsp. crenata” (Bioorg Med Chem Lett, 2009)
